Data as given in paper PMC9501899 (Journal of the American Chemical Society, 2022).

Columns and labels:
VHL-NanoLuc = biological target: T1, VHL-NanoLuc (Homo sapiens, UniProt P40337); experiment: NanoBRET VHL target engagement assay in HEK293 cells; assay type: binding
T1 construct: host or cells: HEK293
Experimental: Figure 9 Binding affinities to VHL and LRRK2. (A) Binding affinity of the tested compounds to VHL using the FP assay. […] NanoBRET target engagement assays of tested compounds to VHL (B) and LRRK2 (C) in permeabilized and live-cell modes. The indicated compounds were titrated into HEK293 cells transfected with VHL-NanoLuc (B) or LRRK2-NanoLuc fusion (C) in the presence of VHL tracer (B) or LRRK2 tracer (C). 0.25 and 0.5 μM VHL tracers were used for the permeabilized and live mode VHL engagement assays separately. 0.125 and 0.5 μM of LRRK2 tracer were used for the permeabilized and live mode LRRK2 engagement assays separately. […]
For VHL and LRRK2 target engagement experiments in live and permeabilized cells, the HEK293 cells were transfected with the VHL-NanoLuc fusion vector (Promega, N275A) or LRRK2-NanoLuc fusion vector (Promega, NV3401) following Promega’s protocol and seeded into a white 384-well plate (Corning3570) at a density of 6000 cells/well. […] The filtered luminescence was measured within 10 min following the addition of the substrate on a GloMax Discover microplate reader (Promega) or a PHERAstar (BMG LABTECH) plate reader equipped with a 450 nm bandpass filter (donor) and a 600 nm long-pass filter (acceptor). […]

LRRK2 = biological target: T2, LRRK2 (Mus musculus, UniProt Q5S006); experiment: LRRK2 degradation in bone marrow-derived macrophages (BMDMs); assay type: cell-based; details: 4 h
T2 construct: endogenous in cells; host or cells: mouse bone marrow-derived macrophages
T2 sequence (Q5S006 whole entry): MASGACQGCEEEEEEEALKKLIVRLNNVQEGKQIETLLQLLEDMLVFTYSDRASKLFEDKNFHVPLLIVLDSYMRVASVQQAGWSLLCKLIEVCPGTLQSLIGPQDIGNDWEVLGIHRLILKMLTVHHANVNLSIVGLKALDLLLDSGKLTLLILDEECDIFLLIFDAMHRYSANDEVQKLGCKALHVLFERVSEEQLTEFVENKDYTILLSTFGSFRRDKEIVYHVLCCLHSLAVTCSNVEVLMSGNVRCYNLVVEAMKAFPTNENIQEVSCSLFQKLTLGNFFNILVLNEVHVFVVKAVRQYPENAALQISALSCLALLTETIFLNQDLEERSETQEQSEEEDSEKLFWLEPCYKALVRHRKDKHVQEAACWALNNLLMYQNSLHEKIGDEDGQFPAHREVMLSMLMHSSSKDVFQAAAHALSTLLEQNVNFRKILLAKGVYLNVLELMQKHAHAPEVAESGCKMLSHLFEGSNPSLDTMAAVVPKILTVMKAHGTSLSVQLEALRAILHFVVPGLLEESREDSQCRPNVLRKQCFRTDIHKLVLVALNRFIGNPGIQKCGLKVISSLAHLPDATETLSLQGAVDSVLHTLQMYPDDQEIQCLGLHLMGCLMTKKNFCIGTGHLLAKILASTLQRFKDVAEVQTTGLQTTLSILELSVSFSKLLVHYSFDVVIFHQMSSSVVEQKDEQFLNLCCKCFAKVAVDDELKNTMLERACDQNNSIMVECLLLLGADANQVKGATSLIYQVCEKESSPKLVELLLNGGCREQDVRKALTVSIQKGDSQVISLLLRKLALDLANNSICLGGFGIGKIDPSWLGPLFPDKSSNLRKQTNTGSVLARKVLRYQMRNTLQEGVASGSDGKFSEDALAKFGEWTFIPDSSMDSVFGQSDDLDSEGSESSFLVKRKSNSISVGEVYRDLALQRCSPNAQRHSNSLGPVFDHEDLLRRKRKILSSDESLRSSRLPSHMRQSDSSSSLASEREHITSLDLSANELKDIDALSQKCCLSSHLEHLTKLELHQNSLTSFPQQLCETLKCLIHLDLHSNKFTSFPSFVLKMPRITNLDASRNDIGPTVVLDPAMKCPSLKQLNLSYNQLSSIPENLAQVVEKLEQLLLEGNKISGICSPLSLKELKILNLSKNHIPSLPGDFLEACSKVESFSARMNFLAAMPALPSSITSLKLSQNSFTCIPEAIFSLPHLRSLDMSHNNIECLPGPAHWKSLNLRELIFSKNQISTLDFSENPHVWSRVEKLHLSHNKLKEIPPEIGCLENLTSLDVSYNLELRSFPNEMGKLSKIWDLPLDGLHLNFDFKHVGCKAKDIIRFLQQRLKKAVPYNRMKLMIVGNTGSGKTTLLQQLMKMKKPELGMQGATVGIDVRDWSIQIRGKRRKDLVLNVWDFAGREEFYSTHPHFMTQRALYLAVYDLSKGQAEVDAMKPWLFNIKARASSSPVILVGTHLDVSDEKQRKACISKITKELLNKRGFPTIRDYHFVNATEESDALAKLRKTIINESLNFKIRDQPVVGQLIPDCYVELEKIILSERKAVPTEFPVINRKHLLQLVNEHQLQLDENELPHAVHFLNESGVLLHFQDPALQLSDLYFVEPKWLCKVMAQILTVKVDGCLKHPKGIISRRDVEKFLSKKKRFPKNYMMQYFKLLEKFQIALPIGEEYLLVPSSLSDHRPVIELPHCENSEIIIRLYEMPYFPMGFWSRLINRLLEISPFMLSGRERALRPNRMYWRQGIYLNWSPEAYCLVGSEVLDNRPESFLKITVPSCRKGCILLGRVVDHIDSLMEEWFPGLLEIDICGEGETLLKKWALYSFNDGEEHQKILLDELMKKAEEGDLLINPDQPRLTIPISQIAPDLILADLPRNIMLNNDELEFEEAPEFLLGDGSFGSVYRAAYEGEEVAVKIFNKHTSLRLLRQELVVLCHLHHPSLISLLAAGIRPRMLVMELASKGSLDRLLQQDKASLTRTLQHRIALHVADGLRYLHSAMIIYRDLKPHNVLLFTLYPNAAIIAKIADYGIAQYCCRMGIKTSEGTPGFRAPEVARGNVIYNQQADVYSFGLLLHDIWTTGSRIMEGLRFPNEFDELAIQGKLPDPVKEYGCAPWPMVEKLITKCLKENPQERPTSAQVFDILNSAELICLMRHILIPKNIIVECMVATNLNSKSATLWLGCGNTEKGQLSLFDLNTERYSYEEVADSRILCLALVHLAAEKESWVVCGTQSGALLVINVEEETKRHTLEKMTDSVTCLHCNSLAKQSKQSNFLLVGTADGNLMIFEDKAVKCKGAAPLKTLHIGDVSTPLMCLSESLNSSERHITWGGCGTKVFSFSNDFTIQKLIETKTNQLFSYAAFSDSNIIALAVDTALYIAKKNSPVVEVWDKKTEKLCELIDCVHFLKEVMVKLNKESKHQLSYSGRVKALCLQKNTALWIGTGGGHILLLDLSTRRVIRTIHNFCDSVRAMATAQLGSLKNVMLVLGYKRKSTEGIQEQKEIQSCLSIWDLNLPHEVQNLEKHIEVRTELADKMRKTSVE
Source text: The relative LRRK2 protein and pRab10 levels were obtained by quantifying the ratios of total LRRK2/GAPDH or Rab10-pThr73/total Rab10, respectively, and the ratios were normalized to the DMSO-treated samples. The relative LRRK2 and pRab10 protein levels were plotted against the compound concentration and fitted against “nonlinear regression, one site-fit log IC50” in GraphPad to obtain the DC50 and EC50 values. Data points are presented as mean ± standard error of the mean (SEM) from three biological independent replicates. […] The relative LRRK2 protein and pRab10 levels were obtained by quantifying the ratios of total LRRK2/ GAPDH or Rab10-pThr73/total Rab10, respectively, and the ratios were normalized to the DMSO-treated samples. The relative LRRK2 and pRab10 protein levels were plotted against the treatment time and were fitted against “nonlinear regression, one-phase decay” in GraphPad to obtain the half-life (T1/2) values. Data points are presented as mean ± SEM from three biological independent replicates. […] The relative LRRK2 levels were obtained by quantifying the ratios of total LRRK2/tubulin and normalized to the DMSO-treated samples. The relative LRRK2 levels were plotted against the compound concentration and fitted against “nonlinear regression, one site-fit log IC50” in GraphPad to obtain the DC50 values.
Bone marrow isolation and macrophage differentiation were modified from ref ([81]), employing an L929 preconditioned medium as the source of M-CSF for differentiation. Briefly, scissors and forceps were used to dissect femurs and tibiae from adult mice, and muscle tissues were carefully removed from bones. Clean femurs and tibiae were placed in a tissue culture dish containing complete media. The ends of each bone were cut with scissors to expose the bone marrow. […] The cell suspension was counted, and cells were seeded for experimental analysis in a six-well format in tissue culture-treated dishes at a final cell density of one million cells per well of a six-well plate. […]

Rab10-pThr73 = experiment: Rab10 dephosphorylation in G2019S LRRK2 MEFs by Western blotting; assay type: cell-based, mouse; details: 0.3 µM

T1 sequence (P40337 whole entry): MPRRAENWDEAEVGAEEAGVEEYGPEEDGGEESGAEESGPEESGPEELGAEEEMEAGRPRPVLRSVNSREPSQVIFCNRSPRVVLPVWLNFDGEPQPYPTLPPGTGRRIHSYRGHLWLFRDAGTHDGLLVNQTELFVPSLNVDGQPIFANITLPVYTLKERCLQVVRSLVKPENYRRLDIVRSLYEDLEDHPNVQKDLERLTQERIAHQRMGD

CNc1nc(Nc2ccc(C(=O)N3CCN(CCOCCOCCSC(C)(C)[C@H](NC(=O)C4(F)CC4)C(=O)N4C[C@H](O)C[C@H]4C(=O)NCc4ccc(-c5scnc5C)cc4)CC3)cc2OC)ncc1Cl [SD75]
VHL IC50 Permeabilized/IC50 Live (VHL-NanoLuc; ratio used to compare permeabilities): 0.76

CNc1nc(Nc2ccc(C(=O)N3CCN(C[C@H]4CC[C@H](CSC(C)(C)[C@H](NC(=O)C5(F)CC5)C(=O)N5C[C@H](O)CC5C(=O)NCc5ccc(-c6scnc6C)cc5)CC4)CC3)cc2OC)ncc1Cl (stereo partly drawn) [XL01126, (2S,4R)-1-((R)-3-((((1R,4R)-4-((4-(4-((5-Chloro-4-(methylamino)pyrimidin-2-yl)amino)-3-methoxybenzoyl)piperazin-1-yl)methyl)cyclohexyl)methyl)thio)-2-(1-fluorocyclopropane-1-carboxamido)-3-methylbutanoyl)-4-hydroxy-N-(4-(4-methylthiazol-5-yl)benzyl)pyrrolidine-2-carboxamide]
Dmax (LRRK2; BMDM): 83%
IC50 (VHL-NanoLuc; permeabilized HEK293 cells): > 10 µM
GS-pRab10 percent label at the end of the time curve (Rab10-pThr73): 92%

CNc1nc(Nc2ccc(C(=O)N3CCN(C[C@H]4CC[C@@H](CSC(C)(C)[C@H](NC(=O)C5(F)CC5)C(=O)N5C[C@H](O)CC5C(=O)NCc5ccc(-c6scnc6C)cc5)CC4)CC3)cc2OC)ncc1Cl (stereo partly shown) [XL01134]
GS-pRab10 percent label at the end of the time curve (Rab10-pThr73): 87%

CNc1nc(Nc2ccc(C(=O)N3CCN(C[C@H]4CC[C@H](CSC(C)(C)[C@H](NC(=O)C5(F)CC5)C(=O)N5C[C@@H](O)C[C@H]5C(=O)NCc5ccc(-c6scnc6C)cc5)CC4)CC3)cc2OC)ncc1Cl [cis-XL01126, (2S,4S)-1-((R)-3-((((1R,4R)-4-((4-(4-((5-Chloro-4-(methylamino)pyrimidin-2-yl)amino)-3-methoxybenzoyl)piperazin-1-yl)methyl)cyclohexyl)methyl)thio)-2-(1-fluorocyclopropane-1-carboxamido)-3-methylbutanoyl)-4-hydroxy-N-(4-(4-methylthiazol-5-yl)benzyl)pyrrolidine-2-carboxamide]
DC50s (LRRK2) (LRRK2): NDO
Dmax (LRRK2) (LRRK2): NDO
